According to PubChem BioAssay (NCI):
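Following 48 hours of exposure in 96-well plates, responses at five concentrations were used to interpolate endpoints linearly. GI50: concentration for 50% inhibition of growth. TGI is the concentration that stops growth completely.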

Tests used:
Assay in all cases: growth of human tumour cells (NCI), 48 h
UACC-257 melanoma = test system: UACC-257 melanoma
OVCAR-3 ovarian = test system: OVCAR-3 ovarian
NCI/ADR-RES ovarian = test system: NCI/ADR-RES ovarian
HOP-92 NSCLC = test system: HOP-92 NSCLC
HCT-116 colon = test system: HCT-116 colon
COLO 205 colon = test system: COLO 205 colon
M14 melanoma = test system: M14 melanoma
NCI-H226 lung = test system: NCI-H226 lung
NCI-H522 lung = test system: NCI-H522 lung
MALME-3M melanoma = test system: MALME-3M melanoma
SW-620 colon = test system: SW-620 colon
HS 578T breast = test system: HS 578T breast
IGROV1 ovarian = test system: IGROV1 ovarian
A549 NSCLC = test system: A549 NSCLC
NCI-H460 lung = test system: NCI-H460 lung
SK-MEL-2 melanoma = test system: SK-MEL-2 melanoma
MDA-MB-231 breast = test system: MDA-MB-231 breast
PC-3 prostate = test system: PC-3 prostate
SN12C renal = test system: SN12C renal
TK-10 renal = test system: TK-10 renal
786-0 renal = test system: 786-0 renal
DU-145 prostate = test system: DU-145 prostate
T-47D breast = test system: T-47D breast
NCI-H23 lung = test system: NCI-H23 lung
RXF 393 renal = test system: RXF 393 renal
SK-OV-3 ovarian = test system: SK-OV-3 ovarian
OVCAR-8 ovarian = test system: OVCAR-8 ovarian
SNB-75 CNS = test system: SNB-75 CNS
SF-295 CNS = test system: SF-295 CNS
ACHN renal = test system: ACHN renal
OVCAR-4 ovarian = test system: OVCAR-4 ovarian
HCC-2998 colon = test system: HCC-2998 colon
A498 renal = test system: A498 renal
MDA-MB-435 = test system: MDA-MB-435
SF-539 CNS = test system: SF-539 CNS
KM12 colon = test system: KM12 colon
BT-549 breast = test system: BT-549 breast
HCT-15 colon = test system: HCT-15 colon
SK-MEL-5 melanoma = test system: SK-MEL-5 melanoma
CAKI-1 renal = test system: CAKI-1 renal
LOX IMVI melanoma = test system: LOX IMVI melanoma
HOP-62 NSCLC = test system: HOP-62 NSCLC
U251 CNS = test system: U251 CNS
K-562 leukemia = test system: K-562 leukemia
SR leukemia = test system: SR leukemia
SNB-19 CNS = test system: SNB-19 CNS
CCRF-CEM leukemia = test system: CCRF-CEM leukemia
OVCAR-5 ovarian = test system: OVCAR-5 ovarian
MCF7 breast = test system: MCF7 breast
UACC-62 melanoma = test system: UACC-62 melanoma
UO-31 renal = test system: UO-31 renal
MOLT-4 leukemia = test system: MOLT-4 leukemia
RPMI-8226 leukemia = test system: RPMI-8226 leukemia
HT29 colon = test system: HT29 colon
SF-268 CNS = test system: SF-268 CNS
SK-MEL-28 melanoma = test system: SK-MEL-28 melanoma
HL-60(TB) leukemia = test system: HL-60(TB) leukemia

SMILES: CCN1C(=O)c2ccc3c4c(ccc(c24)C1=O)C(=O)N(CCCNCc1ccccc1OC)C3=O
- GI50 (UACC-257 melanoma): 264 nM
- TGI (UACC-257 melanoma): 880 nM
- GI50 (OVCAR-3 ovarian): 335 nM
- TGI (OVCAR-3 ovarian): 1040 nM
- GI50 (NCI/ADR-RES ovarian): 1040 nM
- TGI (NCI/ADR-RES ovarian): 5960 nM
- GI50 (HOP-92 NSCLC): 2600 nM
- TGI (HOP-92 NSCLC): 5500 nM
- GI50 (HCT-116 colon): 329 nM
- TGI (HCT-116 colon): 1140 nM
- GI50 (COLO 205 colon): 201 nM
- TGI (COLO 205 colon): 382 nM
- GI50 (M14 melanoma): 690 nM
- TGI (M14 melanoma): 2100 nM
- GI50 (NCI-H226 lung): 1280 nM
- TGI (NCI-H226 lung): 2770 nM
- GI50 (NCI-H522 lung): 1190 nM
- TGI (NCI-H522 lung): 2680 nM
- GI50 (MALME-3M melanoma): 186 nM
- TGI (MALME-3M melanoma): 391 nM
- GI50 (SW-620 colon): 362 nM
- TGI (SW-620 colon): 1770 nM
- GI50 (HS 578T breast): 2210 nM
- TGI (HS 578T breast): 8350 nM
- GI50 (IGROV1 ovarian): 1280 nM
- TGI (IGROV1 ovarian): 4370 nM
- GI50 (A549 NSCLC): 780 nM
- TGI (A549 NSCLC): 2490 nM
- GI50 (NCI-H460 lung): 437 nM
- TGI (NCI-H460 lung): 2090 nM
- GI50 (SK-MEL-2 melanoma): 1550 nM
- TGI (SK-MEL-2 melanoma): 3480 nM
- GI50 (MDA-MB-231 breast): 791 nM
- TGI (MDA-MB-231 breast): 9310 nM
- GI50 (PC-3 prostate): 613 nM
- TGI (PC-3 prostate): 5180 nM
- GI50 (SN12C renal): 327 nM
- TGI (SN12C renal): 1320 nM
- GI50 (TK-10 renal): 2520 nM
- TGI (TK-10 renal): 7600 nM
- GI50 (786-0 renal): 1330 nM
- TGI (786-0 renal): 5880 nM
- GI50 (DU-145 prostate): 1220 nM
- TGI (DU-145 prostate): 2500 nM
- GI50 (T-47D breast): 1000 nM
- TGI (T-47D breast): 3290 nM
- GI50 (NCI-H23 lung): 782 nM
- TGI (NCI-H23 lung): 3680 nM
- GI50 (RXF 393 renal): 671 nM
- TGI (RXF 393 renal): 2040 nM
- GI50 (SK-OV-3 ovarian): 2280 nM
- TGI (SK-OV-3 ovarian): 7040 nM
- GI50 (OVCAR-8 ovarian): 438 nM
- TGI (OVCAR-8 ovarian): 2870 nM
- GI50 (SNB-75 CNS): 1570 nM
- TGI (SNB-75 CNS): 3010 nM
- GI50 (SF-295 CNS): 377 nM
- TGI (SF-295 CNS): 1370 nM
- GI50 (ACHN renal): 553 nM
- TGI (ACHN renal): 4630 nM
- GI50 (OVCAR-4 ovarian): 152 nM
- TGI (OVCAR-4 ovarian): 345 nM
- GI50 (HCC-2998 colon): 632 nM
- TGI (HCC-2998 colon): 1890 nM
- GI50 (A498 renal): 383 nM
- TGI (A498 renal): 1990 nM
- GI50 (MDA-MB-435): 173 nM
- TGI (MDA-MB-435): 322 nM
- GI50 (SF-539 CNS): 1160 nM
- TGI (SF-539 CNS): 2470 nM
- GI50 (KM12 colon): 630 nM
- TGI (KM12 colon): 3750 nM
- GI50 (BT-549 breast): 1480 nM
- TGI (BT-549 breast): 2940 nM
- GI50 (HCT-15 colon): 291 nM
- TGI (HCT-15 colon): 1070 nM
- GI50 (SK-MEL-5 melanoma): 164 nM
- TGI (SK-MEL-5 melanoma): 319 nM
- GI50 (CAKI-1 renal): 791 nM
- TGI (CAKI-1 renal): 2470 nM
- GI50 (LOX IMVI melanoma): 314 nM
- TGI (LOX IMVI melanoma): 1310 nM
- GI50 (HOP-62 NSCLC): 925 nM
- TGI (HOP-62 NSCLC): 2780 nM
- GI50 (U251 CNS): 1250 nM
- TGI (U251 CNS): 3320 nM
- GI50 (K-562 leukemia): 936 nM
- TGI (K-562 leukemia): 4270 nM
- GI50 (SR leukemia): 466 nM
- TGI (SR leukemia): 6300 nM
- GI50 (SNB-19 CNS): 1330 nM
- TGI (SNB-19 CNS): 2970 nM
- GI50 (CCRF-CEM leukemia): 793 nM
- TGI (CCRF-CEM leukemia): 9410 nM
- GI50 (OVCAR-5 ovarian): 1350 nM
- TGI (OVCAR-5 ovarian): 3740 nM
- GI50 (MCF7 breast): 205 nM
- TGI (MCF7 breast): 584 nM
- GI50 (UACC-62 melanoma): 468 nM
- TGI (UACC-62 melanoma): 1630 nM
- GI50 (UO-31 renal): 1390 nM
- TGI (UO-31 renal): 3580 nM
- GI50 (MOLT-4 leukemia): 891 nM
- TGI (MOLT-4 leukemia): 4370 nM
- GI50 (RPMI-8226 leukemia): 1640 nM
- TGI (RPMI-8226 leukemia): 5530 nM
- GI50 (HT29 colon): 404 nM
- TGI (HT29 colon): 3670 nM
- GI50 (SF-268 CNS): 1150 nM
- TGI (SF-268 CNS): 5750 nM
- GI50 (SK-MEL-28 melanoma): 1580 nM
- TGI (SK-MEL-28 melanoma): 3240 nM
- GI50 (HL-60(TB) leukemia): 1110 nM
- TGI (HL-60(TB) leukemia): 3600 nM
